Data reported in PubChem BioAssay (NCI).
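Five compound concentrations were applied to cells in 96-well plates for 48 hours; endpoints were derived by simple linear interpolation of the resulting dose-response curve. GI50 is the concentration that inhibits growth by half. TGI: total growth inhibition.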

Tests used:
Assay in all cases: inhibition of tumour cell growth, NCI panel, 48 h
SK-OV-3 ovarian = test system: SK-OV-3 ovarian
OVCAR-3 ovarian = test system: OVCAR-3 ovarian
CCRF-CEM leukemia = test system: CCRF-CEM leukemia
NCI-H23 lung = test system: NCI-H23 lung
HCT-15 colon = test system: HCT-15 colon
SR leukemia = test system: SR leukemia
NCI-H460 lung = test system: NCI-H460 lung
LOX IMVI melanoma = test system: LOX IMVI melanoma
EKVX NSCLC = test system: EKVX NSCLC
786-0 renal = test system: 786-0 renal

| SMILES | GI50 (SK-OV-3 ovarian) [µM] | TGI (SK-OV-3 ovarian) [µM] | GI50 (OVCAR-3 ovarian) [µM] | TGI (OVCAR-3 ovarian) [µM] | GI50 (CCRF-CEM leukemia) [µM] | TGI (CCRF-CEM leukemia) [µM] | GI50 (NCI-H23 lung) [µM] | TGI (NCI-H23 lung) [µM] | GI50 (HCT-15 colon) [µM] | TGI (HCT-15 colon) [µM] | GI50 (SR leukemia) [µM] | TGI (SR leukemia) [µM] | GI50 (NCI-H460 lung) [µM] | TGI (NCI-H460 lung) [µM] | GI50 (LOX IMVI melanoma) [µM] | TGI (LOX IMVI melanoma) [µM] | GI50 (EKVX NSCLC) [µM] | TGI (EKVX NSCLC) [µM] | GI50 (786-0 renal) [µM] | TGI (786-0 renal) [µM] |
| --- | --- | --- | --- | --- | --- | --- | --- | --- | --- | --- | --- | --- | --- | --- | --- | --- | --- | --- | --- | --- |
| O=C(Cc1ccc(/C=C/C(=O)c2ncc[nH]2)cc1)Nc1ccc(Cl)cc1 | 9.74 | > 25 | 1.14 | 4.29 | 1.08 | > 25 | 2.97 | 11.5 | 0.879 | 5.99 | 0.798 | > 25 | 3.43 | > 25 | 0.87 | 3.48 | 5.68 | 20.2 | 1.13 | 4.77 |
| O=C1Oc2cc3c(c4cccc1c24)OCN(c1ccc(Cl)cc1)C3 |  | > 100 |  | > 57.4 |  | 45.7 |  | > 100 |  | > 64.7 |  | 49 |  | > 100 |  | 17.7 |  | > 100 |  | 34.5 |
| CC(C)(C)C1=NC(S)NC(CCC(=O)Nc2ccccc2[N+](=O)[O-])=C1 (stereo not given) |  | > 100 |  | > 100 |  | > 100 |  | > 100 |  | > 100 |  | > 100 |  | > 100 |  | > 100 |  | > 100 |  | > 100 |
| O=[N+]([O-])c1ccc(NSc2ccccc2)cc1 |  | 87.3 |  | > 100 |  | > 100 |  | > 100 |  | > 100 |  | 63.2 |  | > 100 |  | 28 |  | 90.1 |  | 30.8 |
| CCOC(=O)c1cc(-c2ccc([N+](=O)[O-])cc2)n(-c2ccc(C(=O)O)c(O)c2)c1C | 10.8 | 23 | 2.86 | 9.53 | 2.75 | > 100 | 3.18 | 13.7 | 3.02 | 12.2 | 9.3 | > 100 | 4.16 | 17 | 2.85 | 11 | 5.2 | 18 | 4.84 | 17.2 |
| CC1(C)N=C(N)N=C(N)N1c1ccc(CCCCc2ccc(S(=O)(=O)F)cc2Cl)c(Cl)c1 |  | 351 |  | 87 |  | 8.28 |  | 200 |  | 193 |  | > 500 |  | 80.8 |  | 43.9 |  | 161 |  | 76.9 |
| O=c1[nH]c(=O)n(C2CC(O)C(CO)O2)cc1C#Cc1c(F)c(F)c(F)c(F)c1F (stereo not given) |  | > 100 |  | > 100 |  | > 100 |  | > 100 |  | > 100 |  | > 100 |  | > 100 |  | > 100 |  | > 100 |  | > 100 |
| N#Cc1nc(-c2ccc(F)cc2)oc1S(=O)(=O)N1CCOCC1 | 23.4 | 86.6 | 1.75 | 3.18 | 1.62 | 7.35 | 10.4 | 25.4 | 1.98 | 5.37 | 0.439 | 2.92 | 12.6 | 27.3 | 1.02 | 2.3 | 13.8 | 37 | 3.34 | 11.7 |
| COc1cc2c(cc1OC)C1C=NC(C(=O)O)(C2)c2ccccc21 (stereo not given) |  | > 100 |  | > 100 |  | > 100 |  | > 100 |  | > 100 |  | > 100 |  | > 100 |  | > 100 |  | > 100 |  | > 100 |
| CN1CCCNCCN(CCc2ccccn2)CCCN(C)CC1 |  | > 100 |  | > 100 |  | > 60 |  | > 100 |  | > 62.6 |  | 57.3 |  | > 100 |  | > 79.1 |  | > 100 |  | 53.9 |
| S=C1NCCN1C1=Nc2ccccc2CO1 | > 100 | > 100 | > 100 | > 100 | > 100 | > 100 | > 100 | > 100 | > 100 | > 100 | > 100 | > 100 | > 100 | > 100 | > 100 | > 100 | 93.6 | > 100 | > 100 | > 100 |
| CCOC(=O)CCCO |  | > 100 |  | > 100 |  | > 100 |  | > 100 |  | > 100 |  | > 100 |  | > 100 |  | > 100 |  | > 100 |  | > 100 |
| OCc1c(-c2cccc3ccccc23)sc(-c2cccc3ccccc23)c1CO |  | 29.3 |  | 26.5 |  | 46.5 |  | 30.1 |  | 27.9 |  | 44 |  | 34.7 |  | 30.5 |  | 25 |  | 27.4 |
| N#Cc1cnn2ccn(C3OC(COC(=O)c4ccccc4)C(OC(=O)c4ccccc4)C3OC(=O)c3ccccc3)c12 (stereo not given) |  | > 21.5 |  | > 21.5 |  | > 21.5 |  | > 21.5 |  | > 21.5 |  | > 31.6 |  | > 21.5 |  | > 31.6 |  | > 21.5 |  | > 21.5 |
| O=C1CSC(N2CCN(c3cccc(Cl)c3)CC2)=N1 | > 100 | > 100 | > 100 | > 100 | > 100 | > 100 | > 100 | > 100 | > 100 | > 100 | > 100 | > 100 | > 100 | > 100 | > 100 | > 100 | > 100 | > 100 | > 100 | > 100 |
| COC(=O)C(CC(=O)c1cc2c(cc1I)OCO2)Cc1cc(OC)c(OC)c(OC)c1I (stereo not given) |  | > 100 |  | > 100 |  | > 100 |  | > 100 |  | > 100 |  | > 100 |  | > 100 |  | > 100 |  | > 100 |  | > 100 |
| COC(=O)c1c2c(c(C)[n+]([O-])c1C)C(=O)C=CC2=O | 2.26 | 5.38 | 0.314 | 1.05 | 0.0559 | 7.3 | 1.63 | 4.27 | 1.43 | 3.31 | 2.28 | 8.19 | 2.72 | 7.4 | 1.44 | 3.04 | 2.02 | 5.12 | 2.06 | 4.51 |
| COc1cccc(-c2nn(-c3ccccc3)cc2-c2ccnc(NCCCNS(=O)(=O)c3cccc(F)c3)c2)c1 | 3.18 | > 100 | 4.88 | > 100 | 4.62 | > 100 | 4.47 | > 100 | 2.89 | > 100 | 2.13 | 7.22 | 4.93 | > 100 | 4.05 | > 100 | 2.79 | > 100 | 4.01 | > 100 |
